Values of other authors in patent US20110311626A1, “CONTROLLED RELEASE COMPOSITIONS COMPRISING ANTI-CHOLINERGIC DRUGS” (priority 2009, published 2011).

Details: currently marketed formulation, blood plasma, after administration

Tmax: 1.5 to 3 h
SMILES: CCN(CC)CCOC(=O)C1(C2CCCCC2)CCCCC1 [dicyclomine, bicyclohexyl-1-carboxylic acid, 2-(diethylamino) ethyl ester]
